{"source": "patent US20180133221A1", "about": "“ADMINISTRATION OF UBIQUITIN-ACTIVATING ENZYME INHIBITOR AND CHEMOTHERAPEUTIC AGENTS” (Millennium Pharmaceuticals, Inc., priority 2014, published 2018)", "origin": "cited, not measured here", "key": {"[1]": {"test_system": "leukemia and myeloma cell lines", "details": "leukemia and myeloma cell lines (Xu et al., 2010); cited from earlier work"}, "[2]": {"test_system": "mouse acute myeloid leukemia (AML model)", "details": "mouse AML model (Xu et al., 2010); cited from earlier work"}}, "data": [{"compound": "O=C1NN(c2ccc(F)c(Cl)c2)C(=O)/C1=C\\c1ccc([N+](=O)[O-])o1", "note": "[PYZD-4409]", "values": [{"measurement": "cell death", "setting": "[1]", "value": "induced cell death"}, {"measurement": "anti-tumor activity", "setting": "[2]", "value": "demonstrated anti-tumor activity"}]}]}
